Test results published in patent US12544575B2, “Bioelectric neuromodulation for hematopoiesis regulation during chemotherapy” (THE REGENTS OF THE UNIVERSITY OF CALIFORNIA, priority 2020, dated 2026).

How the values were obtained:
Assay type in all cases: in vivo, rat
bone marrow of SD rats = test: Immunofluorescence staining of the bone marrow microenvironment (nestin, TH, CD31)
Method: The testing utilized immunofluorescence staining of nestin for mesenchymal stem cell, tyrosine hydroxylase (TH+) for sympathetic nerve, and CD31 for vascular to evaluate the alteration of bone marrow microenvironment after […] of carboplatin.
After two cycles of chemotherapy, exemplified as using carboplatin with different dosages of 40 mg/kg and 60 mg/kg, the bone marrow of the rats from the five experimental groups was analyzed by immunofluorescence to evaluate the alteration of the bone marrow microenvironment. The bone marrow tissue of rats was stained with nestin, TH and anti-CD31 antibody for mesenchymal stem cell, sympathetic nerve and endothelial cell, respectively.

SD rats [1] = test: Survival of rats after two cycles of carboplatin chemotherapy; details: after two cycles of carboplatin over a period of 60 days; carboplatin 60 mg/kg intraperitoneally on day 0, ES or G-CSF on day 2
Method: (§1) In FIG. 7A is seen white blood cell concentration for each of the five groups of rats which were tested over two cycles of testing. Male SD rats (weighing 350 to 400 g) were used for studying chemotherapy-induced cytopenia. The rats were divided into five experimental groups: control group; electrical stimulation group; carboplatin group; carboplatin+electrical stimulation (ES) group; and carboplatin+G-CSF group.
(§2) For each cycle of treatment, a single dose of carboplatin (e.g., 60 mg/kg) or vehicle (saline) was injected intraperitoneally on day 0. On day 2, electrical autonomic nerve stimulation was performed for a specified period (e.g., 60 minutes), or a single dose of G-CSF was administered on the rats according to the different experimental groups. In the example treatment each cycle of treatment is considered to be 28 days, however, a treatment cycle could span from one to eight weeks.
FIG. 10 illustrates an example embodiment 590 of results indicating survival rates of the rats in the same five groups (control, ES, carboplatin, carboplatin+ES, and carboplatin+G-CSF) as previously described after two cycles of carboplatin over a period of 60 days.

SD rats [2] = test: Chemotherapy-induced cytopenia, complete blood count of peripheral blood
Method: as §1, §2
Blood samples for complete blood count (CBC) were collected in EDTA tubes on various days (day 0, 2, 7, 10, 14, 17, 21, and 28).

[3] = after three cycles of carboplatin
[4] = after two cycles of carboplatin, 40 mg/kg and 60 mg/kg

N.N.O=C([O-])C1(C(=O)[O-])CCC1.[Pt+2] [carboplatin]
area of TH+/CD31 by immunofluorescence staining versus control group (bone marrow of SD rats; [3]): lower levels
expression of TH+ in the sympathetic nerve (bone marrow of SD rats; [3]): reduced expression
expression of nestin (mesenchymal stem cell) in comparison to the control group (bone marrow of SD rats; [3]): more extensive expression
area of the sympathetic nerve along with arteriole compared to the control group (bone marrow of SD rats; [4]): significantly decreased
mesenchymal stem cells compared to the control group (bone marrow of SD rats; [4]): increased
survival rate (SD rats [1]): 37.5%
concentration of hemoglobin (SD rats [2]; after carboplatin administration, whether rescue by electrical stimulation or G-CSF): significantly decreased
platelet count compared to the control group (SD rats [2]; day 10 of the first and second cycle): significantly reduced
